What was measured:
Assay type in all cases: cell-based
[1] = tested on: 19 pancreatic cancer cell lines; test: Cell proliferation assays, panel of 19 pancreatic cancer cell lines, 6 days; conditions: 6 days treatment
Description: A panel of 19 pancreatic cancer cell lines was independently assessed in cell proliferation assays. Cells were treated with DMSO vehicle control or varying concentrations of LBH589 for 6 days.

[2] = tested on: 12 pancreatic cancer cell lines; test: Cell proliferation assay, panel summary; conditions: 3 days treatment
From the text: (§1) The MTT is a colorimetric assay to determine the cell proliferation rate. The yellow tetrazolium MTT (3-(4, 5-dimethylthiazolyl-2)-2, 5-diphenyltetrazolium bromide) is reduced, by metabolically active cells, in part by the action of dehydrogenase enzymes, to generate reducing equivalents such as NADH and NADPH. The resulting intracellular purple formazan can be solubilized and quantified by spectrophotometric means. The signals produced is directly proportional to the cell numbers. Describing the MTT assay in detail, experiments were done using six-point or 9 point drug titrations in multi-well tissue culture dishes, with outer rows left empty. Cells were suspended in complete media at densities of between 10^3 and 10^4 cell/ml, respectively, and added per well. The appropriate medium (200 μl) was then added. […] This plate was incubated at 37° for 4 hours and the optical density was measured on a Molecular Devices Thermomax at 490 nm using the Softmax program. […]
(§2) Compound addition began 24 hours after seeding, the same time as the T0 determination. […] The MTS solution was added (as for the T0 plate) and read four hours later. […]
Pancreatic cancer cell lines were treated with DMSO vehicle control or varying concentrations of LBH589 for 3 days. Cell proliferation was measured on the day of cell plating and on the third day post-treatment. IC50 and LD50 values were calculated as described above.

[3] = tested on: 36 colon cancer cell lines; test: Monolayer growth inhibition assay, panel summary; conditions: 3 days treatment
From the text: as §1, §2
Colon cancer cell lines were treated with DMSO vehicle control or varying concentrations of LBH589 for 3 days. Cell proliferation was measured on the day of cell plating and on the third day post-treatment. IC50 and LD50 values were calculated as described above.

Cc1[nH]c2ccccc2c1CCNCc1ccc(/C=C/C(=O)NO)cc1 [LBH589, N-hydroxy-3-[4-[[[2-(2-methyl-1H-indol-3-yl)ethyl]-amino]methyl]phenyl]-2E-2-propenamide]
LD50 ([1]; 18 of the 19 pancreatic cancer cell lines): < 1 µM
IC50 values ([1]; all 19 pancreatic cancer cell lines): low nanomolar
IC50 values ([2]; all 12 pancreatic cancer cell lines): low nanomolar
LD50 ([2]; majority of the pancreatic cancer cell lines (n=10)): < 1 µM
IC50 values ([3]; all 36 colon cancer cell lines): low nanomolar
LD50 ([3]; great majority of the colon cancer cell lines (n=31)): < 1 µM
